Reference: US8450317B2, “CXCR3 receptor antagonists” (Boehringer Ingelheim International GmbH, priority 2009, dated 2013)

Each molecule was assayed against CXCR3 (Macaca fascicularis, UniProt A0A2K5UV19) (assay: functional cellular assay measuring calcium flux in CXCR3 transfected cells (block of CXCR3/IP-10 interaction)). Conditions: IP-10 induced intracellular calcium flux; Cyno-CHO cells stably expressing recombinant CXCR3 and G-alpha-16; IP-10 at EC80; read-out: IC50.
CXCR3, sequence (A0A2K5UV19 entry or part of it): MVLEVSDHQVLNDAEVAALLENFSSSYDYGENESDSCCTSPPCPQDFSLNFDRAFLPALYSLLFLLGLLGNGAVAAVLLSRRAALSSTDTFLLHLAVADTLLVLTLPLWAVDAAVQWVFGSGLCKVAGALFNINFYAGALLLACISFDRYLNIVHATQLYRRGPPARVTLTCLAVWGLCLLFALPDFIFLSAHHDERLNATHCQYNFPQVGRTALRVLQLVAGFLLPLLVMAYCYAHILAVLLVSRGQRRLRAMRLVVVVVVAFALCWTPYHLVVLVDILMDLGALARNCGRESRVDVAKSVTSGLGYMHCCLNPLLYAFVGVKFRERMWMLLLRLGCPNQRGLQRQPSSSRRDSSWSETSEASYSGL
Assay type: cell-based, Cyno
Summary of the method: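 Cyno-CHO cells stably expressing CXCR3 and G-alpha-16, loaded with Ca-4 dye in HBSS/10 mM HEPES pH 7.4 with 2 mM probenecid for 1 h at 37° C. Compound (final 10 microM) preincubated 15 min at room temperature, then IP-10 at EC80 added; calcium flux read at 480/540 nm.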
`Cc1cc(C)n(CC(=O)N2CCN(c3ccc(F)cc3-c3cnc(N4CCC(S(C)(=O)=O)CC4)nc3)CC2C)n1` (stereo not shown) [2-(3,5-dimethyl-1H-pyrazol-1-yl)-1-[4-(4-fluoro-2-{2-[4-(methylsulfonyl)piperidin-1-yl]pyrimidin-5-yl}phenyl)-2-methylpiperazin-1-yl]ethanone] was tested, and the IC50 was 10 nM. In the case of `COc1ncc(-c2cc(Cl)ccc2N2CCN(C(=O)Cn3ccc4cccnc43)CC2)cn1` [1-{4-[4-Chloro-2-(2-methoxy-pyrimidin-5-yl)-phenyl]-piperazin-1-yl}-2-pyrrolo[2,3-b]pyridin-1-yl-ethanone], the IC50 is reported as 7 nM. In the case of `CC1CN(c2ccc(F)cc2-c2cnc(N3CCC(S(C)(=O)=O)CC3)nc2)CCN1C(=O)Cn1ccc2cccnc21` (stereo not shown) [1-[4-(4-fluoro-2-{2-[4-(methylsulfonyl)piperidin-1-yl]pyrimidin-5-yl}phenyl)-2-methylpiperazin-1-yl]-2-(1H-pyrrolo[2,3-b]pyridin-1-yl)ethanone], the IC50 is reported as 8 nM. For `Cc1cc(C)n(CC(=O)N2CCN(c3ccccc3-c3cnc(Oc4ccccc4)nc3)CC2)n1` [2-(3,5-Dimethyl-pyrazol-1-yl)-1-{4-[2-(2-phenoxy-pyrimidin-5-yl)-phenyl]-piperazin-1-yl}-ethanone], the IC50 was 39 nM. `CC1CN(c2ccc(F)cc2-c2cnc(N3CCC(S(C)(=O)=O)CC3)nc2)CCN1C(=O)Cn1cnc2cccnc21` (stereo not shown) [1-[4-(4-fluoro-2-{2-[4-(methylsulfonyl)piperidin-1-yl]pyrimidin-5-yl}phenyl)-2-methylpiperazin-1-yl]-2-(3H-imidazo[4,5-b]pyridin-3-yl)ethanone] gave an IC50 of 13 nM. In the case of `CC1CN(c2ccc(C(F)(F)F)cc2-c2cnc(S(C)(=O)=O)nc2)CCN1C(=O)CN1Cc2ccccc2C1=O` (stereo not shown) [2-[2-(2-methyl-4-{2-[2-(methylsulfonyl)pyrimidin-5-yl]-4-(trifluoromethyl)phenyl}piperazin-1-yl)-2-oxoethyl]-2,3-dihydro-1H-isoindol-1-one], the IC50 is reported as 101 nM. In the case of `O=C(Cn1ccc2cccnc21)N1CCN(c2ccccc2-c2ccc(Cl)nc2)CC1` [1-{4-[2-(6-Chloro-pyridin-3-yl)-phenyl]-piperazin-1-yl}-2-pyrrolo[2,3-b]pyridin-1-yl-ethanone], the IC50 is reported as 31 nM. With `COc1cc(NC(=O)c2cc(F)ccc2N2CCN(C(=O)Cn3nc(C)cc3C)[C@H](C)C2)ccn1` [2-{(3R)-4-[(3,5-dimethyl-1H-pyrazol-1-yl)acetyl]-3-methylpiperazin-1-yl}-5-fluoro-N-(2-methoxypyridin-4-yl)benzamide] the IC50 was 8 nM. Molecule `Cc1cc(C)n(CC(=O)N2CCN(c3ccccc3-c3ccc(C#N)nc3)CC2)n1` [5-(2-{4-[2-(3,5-Dimethyl-pyrazol-1-yl)-acetyl]-piperazin-1-yl}-phenyl)-pyridine-2-carbonitrile] has an IC50 of 18 nM. `Cc1cc(C)n(CC(=O)N2CCN(c3ccccc3-c3cnc(N4CCCC(F)C4)nc3)CC2)n1` (stereo not shown) [2-(3,5-Dimethyl-pyrazol-1-yl)-1-(4-{2-[2-(3-fluoro-piperidin-1-yl)-pyrimidin-5-yl]-phenyl}-piperazin-1-yl)-ethanone] was tested, and the IC50 was 8 nM. `Cc1cc(C)n(CC(=O)N2CCN(c3ccccc3-c3ccc4cc[nH]c4c3)CC2)n1` [2-(3,5-Dimethyl-pyrazol-1-yl)-1-{4-[2-(1H-indol-6-yl)-phenyl]-piperazin-1-yl}-ethanone] showed an IC50 of 81 nM. In the case of `CSc1ncc(-c2cc(C(F)(F)F)ccc2N2CCN(C(=O)Cn3nc(C)cc3C)CC2)cn1` [2-(3,5-Dimethyl-pyrazol-1-yl)-1-{4-[2-(2-methylsulfanyl-pyrimidin-5-yl)-4-trifluoromethyl-phenyl]-piperazin-1-yl}-ethanone], the IC50 is reported as 5 nM. With `COC1(C)CCN(c2ncc(-c3ccccc3N3CCN(C(=O)Cn4nc(C)cc4C)CC3)cn2)CC1` [2-(3,5-Dimethyl-pyrazol-1-yl)-1-(4-{2-[2-(4-methoxy-4-methyl-piperidin-1-yl)-pyrimidin-5-yl]-phenyl}-piperazin-1-yl)-ethanone] the IC50 was 33 nM.
